In US9963457B2, “Crystal of 5-((2-(6-amino)-9H-purin-9-yl)ethyl)amino)pentan-1-o1” (FOREVER CHEER INTERNATIONAL LIMITED, priority 2016, dated 2018):

Assays:
[1] = Stability test of the crystal form (stress, long-term and accelerated test); type: physicochemical
Method: Stress test, long-term stable test and accelerated stability test of the compound with the crystal form:
The stability of the compound with such a crystal form was investigated under conditions of a high temperature (60° C.), high humidity (92.5% RH), strong light irradiation (5 Klx), 40° C./75% RH (for accelerated test) and 25° C./60% RH (for long term test), in accordance with “Guidelines for Stability Testing of bulk pharmaceutical chemicals and formulation” (Chinese Pharmacopoeia 2015 Edition, four main sections of general requirements 9001).
10 mg of the crystalline sample involved in the Examples of the present invention was accurately weighed and placed on the bottom of a glass sample vial, and then spread out to form a thin layer. The samples for test under high temperature and high humidity conditions and for the long-term test were contained in vials sealed with aluminum-foil paper, and some small holes were made on the aluminum-foil paper to ensure that the sample can be fully in contact with ambient conditions; The samples for test under strong light irradiation and for the accelerated test were contained in vials sealed with screw bottle caps. The samples placed under different conditions were taken and analyzed on day 5, 10, and 30, and the analysis results were compared with the initial test results on day 0.

[2] = tested on: mice after neuropathic pain; assay: Elevated plus maze test (EPM), neuropathic pain; type: in vivo; settings: 3 mg/kg IP, 3 mg/kg
Method: An anxious animal model of the prior art—the elevated plus maze test (EPM) was adopted. The mice were acclimated for 30 minutes in the room prior to the behavior observation. The EPM was composed of two open arms (250 lux) and two closed arms (350 lux) arranged opposite to each other. For each test, an individual animal was placed at the center of the test position and allowed to move freely. The test is carried out for 5 minutes. The number of entering the test position for each arm and the time spent therefore were recorded.
The other two sets of tests were conducted to test the effect of the crystal of the present invention on inhibiting anxiety caused by chronic pain and neuropathic pain.
The EPM test tested the anxiety behavior of mice after the test treatment. The physiological saline, non-crystalline NB001 (3 mg/kg), the crystal of the present invention (3 mg/kg), and Gabapentin (30 mg/kg) as a positive control were intraperitoneally injected (IP) into the mice treated with yeast polysaccharide respectively. The behaviors of Mice were observed 28 days after the yeast polysaccharide treatment.

[3] = Accelerated test (40° C./75% RH), Day 30
[4] = Long-term test (25° C./60% RH), Day 30
[5] = Stress test, high humidity (92.5% RH), Day 5
[6] = Stress test, high humidity (92.5% RH), Day 10
[7] = Stress test, high humidity (92.5% RH), Day 30
[8] = Stress test, high temperature (60° C.), Day 5
[9] = Stress test, high temperature (60° C.), Day 10
[10] = Stress test, high temperature (60° C.), Day 30
[11] = Stress test, strong light irradiation (5 Klx), Day 10

With `Nc1ncnc2c1ncn2CCNCCCCCO` [New NB001, 5-(((2-(6-amino)-9H-purin-9-yl)ethyl)amino)pentan-1-ol] the Characteristics [1, 3] was “off-white powder”, the “Content (%)” value [1, 3] was 99.51% and the “Total Impurities (%)” value [1, 3] was 0.49%. For the same compound, the Characteristics ([1]; Day 0) was “off-white powder”, the “Content (%)” value ([1]; Day 0) was 99.39% and the “Total Impurities (%)” value ([1]; Day 0) was 0.61%. For the same compound, the Characteristics [1, 4] was “off-white powder”, the “Content (%)” value [1, 4] was “off-” and the “Total Impurities (%)” value [1, 4] was 0.60%. The Characteristics [1, 5] was “off-white powder”, the “Content (%)” value [1, 5] was 99.51% and the “Total Impurities (%)” value [1, 5] was 0.49%. For the same compound, the Characteristics [1, 6] was “off-white powder”, the “Content (%)” value [1, 6] was 99.41% and the “Total Impurities (%)” value [1, 6] was 0.59%. The Characteristics [1, 7] was “off-white powder”, the “Content (%)” value [1, 7] was 99.53% and the “Total Impurities (%)” value [1, 7] was 0.47%. For the same compound, the Characteristics [1, 8] was “off-white powder”, the “Content (%)” value [1, 8] was 99.47% and the “Total Impurities (%)” value [1, 8] was 0.53%. The Characteristics [1, 9] was “off-white powder”, the “Content (%)” value [1, 9] was 99.52% and the “Total Impurities (%)” value [1, 9] was 0.48%. The Characteristics [1, 10] was “off-white powder”, the “Content (%)” value [1, 10] was 99.43% and the “Total Impurities (%)” value [1, 10] was 0.57%. The Characteristics [1, 11] was “off-white powder”, the “Content (%)” value [1, 11] was 99.48% and the “Total Impurities (%)” value [1, 11] was 0.52%. For the same compound, the “stability under various test conditions” value ([1]; all test conditions of Table 5) was “good” and the “% time in the open arm” value [2] was 18.5 ± 1.4 (8) %.
